# Measurements from article PMC7997574, “Lead Optimization of Benzoxazolone Carboxamides as Orally Bioavailable and CNS Penetrant Acid Ceramidase Inhibitors” (Journal of Medicinal Chemistry, 2020).
# How the values were obtained:
# [1] = In vitro plasma stability study; assay type: in vitro ADME; settings: mouse plasma; read-out: m-plasma t1/2
# Summary of the method: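 Compound at 2 μM final incubated in mouse plasma at 37 °C for up to 120 min, sampled at 0–120 min and quenched in cold MeCN with internal standard. Remaining compound quantified by LC/MS/MS; t1/2 fitted from response vs time; mean of ≥2 experiments.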
# GCase = biological target: T1, GCase (Homo sapiens, UniProt P04062); test: In vitro hGCase assay; assay type: biochemical; settings: 1 and 10 μM
# T1 construct: 5 nM purified human full-length GCase enzyme; made in house
# T1 sequence (P04062 40-536): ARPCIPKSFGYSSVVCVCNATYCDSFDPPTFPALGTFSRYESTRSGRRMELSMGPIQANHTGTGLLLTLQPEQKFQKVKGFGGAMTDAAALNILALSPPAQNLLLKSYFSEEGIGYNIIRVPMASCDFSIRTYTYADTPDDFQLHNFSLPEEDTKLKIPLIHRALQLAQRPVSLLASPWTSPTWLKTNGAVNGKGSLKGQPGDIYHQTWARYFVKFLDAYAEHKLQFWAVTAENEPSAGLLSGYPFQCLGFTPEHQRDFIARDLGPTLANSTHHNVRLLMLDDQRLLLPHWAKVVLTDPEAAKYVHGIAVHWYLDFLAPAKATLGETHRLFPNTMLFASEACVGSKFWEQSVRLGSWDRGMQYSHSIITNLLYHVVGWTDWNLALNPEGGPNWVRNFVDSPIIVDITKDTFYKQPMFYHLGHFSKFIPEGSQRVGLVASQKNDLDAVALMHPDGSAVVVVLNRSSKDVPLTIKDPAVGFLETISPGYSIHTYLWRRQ
# Protocol: hGCase activity measurement was conducted using the fluorogenic substrate 4-methylumbelliferyl-β-D-[…] hydrate (4-MUG, Merck) at 1 mM and 5 nM purified human full-length GCase enzyme and 50 nM of its natural activator SapC (both GCase and SapC were purified in house) in a buffer containing 50 mM citric acid, 174 mM K2HPO4, 15 μM phosphatidylserine, and 0.32 mM Triton X-100 at pH 4.7 in a final volume of 50 μL. The reaction mixtures were incubated for 15 min at rt and stopped by the addition of 150 μL of 1 M glycine at pH 12.5. The cleavage of 4-MUG was monitored by a plate reader at excitation/emission wavelengths of 365/440 nm. The average hGCase activity was calculated from two independent experiments, each performed in two technical replicates.
# AC = biological target: T2, AC (Homo sapiens, UniProt Q13510); test: hAC LC/MS-based activity assay in SH-SY5Y cells; assay type: cell-based; set-up: host or cells: SH-SY5Y
# T2 sequence (Q13510 22-395): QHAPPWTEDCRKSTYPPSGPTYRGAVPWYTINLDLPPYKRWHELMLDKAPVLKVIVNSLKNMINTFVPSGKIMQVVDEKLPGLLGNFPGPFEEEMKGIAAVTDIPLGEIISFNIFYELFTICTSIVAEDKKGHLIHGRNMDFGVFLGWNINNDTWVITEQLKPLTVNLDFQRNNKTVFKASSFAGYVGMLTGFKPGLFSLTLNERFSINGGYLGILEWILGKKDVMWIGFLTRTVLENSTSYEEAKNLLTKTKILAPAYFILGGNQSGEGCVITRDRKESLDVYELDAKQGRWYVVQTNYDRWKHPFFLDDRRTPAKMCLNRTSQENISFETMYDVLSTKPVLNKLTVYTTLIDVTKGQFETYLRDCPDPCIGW
# Protocol: SH-SY5Y cells were purchased from Sigma Aldrich (Italy) and cultured in Dulbecco’s modified Eagle’s medium (DMEM) containing 10% fetal bovine serum at 37 °C and 5% CO2. Drugs were dissolved in DMSO (10 mM) and diluted in the cell culture medium with reduced serum (1%) for cell treatments.
# hAC activity measurement was performed as previously described.[36],[37] Total lysates from cells were diluted in assay buffer (100 mM sodium phosphate, 0.1% Nonidet P-40, 150 mM NaCl, 3 mM DTT, 100 mM sodium citrate, pH 4.5). Reactions were started by the addition of 50 μM N-lauroyl ceramide (Nu-Chek Prep, Elysian, MN) and carried out for 1 h at 37 °C. Reactions were stopped by addition of a mixture of CHCl3/MeOH (2:1) containing 1 nmol of 11-lauroleic acid (Nu-Chek Prep). The organic phases were collected, dried under nitrogen, and analyzed by UPLC/MS (ACQUITY, Waters) in the negative-ion mode monitoring the reaction product (lauric acid, m/z: 199) using 11-lauroleic acid as internal standard. […] The [M–H]^− ion was monitored in the selected-ion monitoring mode (m/z values: lauric acid 199, 11-lauroleic acid 197.35). […]
structure (smiles),measurement,setting,value
"CC(C)CNC(=O)n1c(=O)oc2cc(C3CCN(C)CC3)ccc21 [22m, N-Isobutyl-6-(1-methyl-4-piperidyl)-2-oxo-1,3-benzoxazole-3-carboxamide]",half-life at 2 µM,[1],1.33 h
same,half-life at 2 μM,[1],> 1 h
same,effect on activity of GCase,GCase,no effect
same,AC activity in SH-SY5Y cells,"AC; 1, 2.5, 5, 10 μM, 30 min, 1 h, 3 h, 6 h",concentration- (Figure 5A) and time-dependent reduction of AC activity
same,persistence of effect on AC activity inhibition and SphL,"AC; SH-SY5Y cells, 10 μM",persisted for up to 6 h
